Laboratory results published in PubChem BioAssay (NCI).
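96-well plates; 48 h exposure; 5 concentrations. Endpoints by linear interpolation between flanking doses. Not reached: highest tested concentration assigned. GI50 marks 50% less growth. At the TGI there is no net growth.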

Key:
Assay in all cases: NCI-60 cell line screen, 48 h
OVCAR-4 ovarian = tested on: OVCAR-4 ovarian
HT29 colon = tested on: HT29 colon
HL-60(TB) leukemia = tested on: HL-60(TB) leukemia
OVCAR-5 ovarian = tested on: OVCAR-5 ovarian
UO-31 renal = tested on: UO-31 renal
K-562 leukemia = tested on: K-562 leukemia
UACC-62 melanoma = tested on: UACC-62 melanoma
UACC-257 melanoma = tested on: UACC-257 melanoma
786-0 renal = tested on: 786-0 renal
SR leukemia = tested on: SR leukemia

SMILES	TGI (OVCAR-4 ovarian)	TGI (HT29 colon)	TGI (HL-60(TB) leukemia)	TGI (OVCAR-5 ovarian)	TGI (UO-31 renal)	TGI (K-562 leukemia)	TGI (UACC-62 melanoma)	TGI (UACC-257 melanoma)	TGI (786-0 renal)	TGI (SR leukemia)	GI50 (OVCAR-4 ovarian)	GI50 (HT29 colon)	GI50 (HL-60(TB) leukemia)	GI50 (OVCAR-5 ovarian)	GI50 (UO-31 renal)	GI50 (K-562 leukemia)	GI50 (UACC-62 melanoma)	GI50 (SR leukemia)
c1ccc(CCN2CCc3[nH]c4ccccc4c3C2)cc1	> 100 µM	28.5 µM	41.7 µM	67 µM	32 µM	45.5 µM	> 10 µM	30.4 µM	31.6 µM	75.7 µM								
CCOC(=O)C(NC(=O)N(C1=NCC(C)S1)C1CCCCC1)(OC)C(F)(F)F (stereo not drawn)	> 100 µM	53 µM	59.5 µM	> 100 µM	> 100 µM	> 100 µM	> 100 µM	> 100 µM	28.9 µM	> 100 µM								
COc1nc2c(c(=O)n1C)N[C@H]1[C@H](OC(C)=O)[C@@H](OC(C)=O)CO[C@H]1N2	> 100 µM	> 100 µM	> 100 µM	> 100 µM	> 100 µM	> 100 µM	> 100 µM	> 100 µM	> 100 µM	> 100 µM								
c1ccc(CCNCc2ccco2)nc1	> 100 µM	> 100 µM	> 100 µM	> 100 µM	> 100 µM	> 33.6 µM	> 100 µM	> 100 µM	> 100 µM	> 100 µM								
C=C(CCC(C)C1CCC2C3=C(C(=O)CC21C)C1(C)CCC(=O)[C@@H](C)C1CC3=O)C(C)C(=O)O (stereo partly drawn)	> 100 µM	> 100 µM	32.6 µM	> 100 µM	32.4 µM	35.2 µM	> 100 µM	> 100 µM	37.8 µM	74.8 µM								
Nc1nc(-c2ccccc2N=NN2CCCC2)nc2ccccc12	19.1 µM	10.8 µM		4.66 µM	3.43 µM	10.2 µM	3.77 µM	14.9 µM	4.77 µM	2.38 µM								
Cc1ccncc1.F[B-](F)(F)F.[Pt+2].c1ccc(-c2cccc(-c3ccccn3)n2)nc1	> 100 µM	27.9 µM	> 45.7 µM	41.4 µM	> 27.8 µM	> 100 µM	36.5 µM	44.5 µM	46.4 µM	> 100 µM								
O=C1CCC2(CCO1)OCCO2	> 100 µM	> 100 µM	> 100 µM	> 100 µM	> 100 µM	> 100 µM	> 100 µM	> 100 µM	> 100 µM	> 100 µM								
O=CC(O)C(O)C(O)C(O)C(=O)NCCCCCCCCCCCCNC(=O)C(O)C(O)C(O)C(O)C=O (stereo not drawn)	> 100 µM	> 100 µM	> 100 µM	> 100 µM	> 100 µM		> 100 µM	> 100 µM	> 100 µM	> 100 µM								
C(=C\c1cccc(/C=C/c2ccccn2)n1)/c1ccccn1	> 100 µM	> 100 µM	> 100 µM	> 100 µM	> 100 µM	> 100 µM	83.1 µM	> 100 µM	> 100 µM	> 100 µM								
CC12N=NN(c3ccc([N+](=O)[O-])cc3)C1(O)c1ccccc1C2=O (stereo not drawn)		> 100 µM	> 100 µM		> 100 µM		> 100 µM	> 100 µM	> 100 µM	> 100 µM								
Clc1ccc(N2N=C(c3cccc(Nc4ccncc4)c3)CC2c2ccc3c(c2)OCO3)cc1 (stereo not drawn)	3.25 µM	6.55 µM	4.16 µM	5.69 µM	2.86 µM	5.39 µM	3.32 µM			4.76 µM	1.69 µM	2.44 µM	1.93 µM	2.11 µM	1.36 µM	2.09 µM	1.76 µM	2 µM
CC(=O)Nc1ccc(C(=O)NN2C(=O)C(Cl)C2c2ccc([N+](=O)[O-])cc2)cc1 (stereo not drawn)	> 100 µM	> 100 µM	> 100 µM	> 100 µM	> 100 µM	> 100 µM	> 100 µM	> 100 µM	> 100 µM									
CCCCc1cc2c(C)cc(=O)oc2c(O)c1O	> 100 µM	77 µM	38.4 µM	> 100 µM	54.6 µM	73.5 µM		66.1 µM	99.4 µM	40.2 µM								
O=C(CSCC(=O)N/N=C/c1cccs1)N/N=C/c1cccs1	> 100 µM	> 100 µM	> 100 µM	> 100 µM	> 100 µM	> 100 µM	> 100 µM	> 100 µM	> 100 µM									
CC(=O)/C(=C/n1c(=S)[nH]c2ccccc21)C(=O)Nc1ccccc1C	> 100 µM	> 100 µM	> 100 µM	> 100 µM	> 100 µM			> 100 µM	> 100 µM									
CN(C)c1nc(N(C)C)nc(N(C)C23CC4CC(CC(C4)C2)C3)n1	> 100 µM			> 100 µM	> 100 µM	> 100 µM	> 100 µM	> 100 µM	> 100 µM	> 100 µM								
Nc1cccc2c1C(=O)c1cccc(N)c1C2=O	> 100 µM	> 100 µM		> 100 µM	> 100 µM	> 100 µM	> 100 µM	> 100 µM	> 100 µM									
Cc1nc2c3c(ncn2n1)Oc1c(c(-c2ccccc2)nn1-c1ccccc1)C3c1ccc(Cl)cc1 (stereo not drawn)	> 100 µM	> 100 µM		> 100 µM	> 100 µM	> 100 µM	> 100 µM	> 100 µM	> 100 µM	> 100 µM								
O=[N+]([O-])c1ccc(S[C@@H]2[C@H]3c4c(-c5ccccc5)[nH]c(-c5ccccc5)c4[C@@H]2C[C@H]3Cl)cc1	5.4 µM	> 100 µM	24.3 µM	> 100 µM	28.4 µM		37.3 µM	> 100 µM	23.8 µM	> 100 µM								
O=C(NCc1cccc(C(F)(F)F)c1)c1cc2sccc2nc1C(F)(F)F	> 100 µM	> 100 µM		> 100 µM	> 100 µM	> 100 µM	> 100 µM	> 100 µM	73.7 µM	> 100 µM								
